Among the test systems are BT-549; DLD-1; DMS-114; HOP-18; KM-20L2; SNB-78; XF498; LXFL 529.
What all share (assay): inhibition of tumour cell growth, NCI panel, 48 h

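48-hour exposure; five concentrations; linearly interpolated endpoints. The concentration for 50% growth inhibition is given as GI50.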 Activity calls are given as the source filed them. No stated cut-off is given here; in the data, active = GI50 up to about 1.1 µM and inactive = higher.

On to `CC(C)(C)c1ccc(O)c(CN(Cc2cc(C(C)(C)C)ccc2O)c2ccccc2)c1`, for which the GI50 in the assay with BT-549 was 21 µM (inactive).

On to `COc1c(C2(c3ccc(F)cc3)SCCCS2)c(=O)c1=O`, for which the GI50 with BT-549 was > 100 µM (inactive).

Regarding `CC(=O)OCC1=C(CCC#N)N2C(=O)C(NC(=O)Cc3cccs3)C2[S+]([O-])C1` (stereo not drawn), the GI50 with DLD-1, in the assay with DMS-114, with HOP-18, in the assay with KM-20L2, with SNB-78 and in the assay with XF498 was > 100 µM (inactive) in each case.

Consider `Cc1c(C)c2c(c(N)c1C#N)C(=O)N(NC(=S)Nc1ccccc1)C2=O`, for which, in the assay on BT-549, the GI50 is > 100 µM (inactive).

For `CCCCCCCCCCCCOCCCCCCCCC/C=C/c1ccc2c(c1)OCCOCCOCCOCCO2`, the GI50 in the assay on BT-549 was 23.4 µM (inactive).

For the compound `Cc1ccc(C[N+](C)(C)N)cc1C`, the GI50 in the assay on BT-549 was > 10 µM (inactive).

With `C/C=C(\C)c1cc(O)c(C)c2c1Oc1cc(O)c(Cl)c(C)c1C(=O)O2`, the GI50 in the assay on DLD-1 was 17.4 µM (inactive); in the assay with DMS-114, 29.6 µM (inactive); in the assay with HOP-18, < 0.01 µM (active); with KM-20L2 it was 20.7 µM (inactive); with LXFL 529 it was 24.8 µM (inactive); in the assay with SNB-78, 29.1 µM (inactive).

Consider `O=C(N/N=C\c1ccc([N+](=O)[O-])s1)c1ccncc1`, for which, in the assay with BT-549, the GI50 was 11.3 µM (inactive).

With `CN(C)c1nc(N(C)c2ccccc2)[s+]s1`, the GI50 in the assay with DLD-1 is 92.3 µM (inactive); in the assay with DMS-114 it was 30.8 µM (inactive); with HOP-18 it was > 100 µM (inactive); in the assay on KM-20L2, > 100 µM (inactive); in the assay with LXFL 529, 36.8 µM (inactive); with SNB-78 it was > 100 µM (inactive). The GI50 in the assay with XF498 is 20 µM (inactive).

Consider `COC(=O)C(=O)C(C(=O)C(=O)Nc1ccc(C)c(C)c1)c1nc2ccc([N+](=O)[O-])cc2nc1O` (stereo not drawn), for which the GI50 in the assay with BT-549 is > 100 µM (inactive).

With `CC(C)N(C(=O)C12C3C4C5(C#N)C3C1(C#N)C5C42C#N)C(C)C` (stereo not drawn), the GI50 in the assay with DLD-1, in the assay with DMS-114, with HOP-18, in the assay with KM-20L2, in the assay with LXFL 529 and in the assay with SNB-78 was > 100 µM (inactive) each time. In the assay on XF498, the GI50 was > 100 µM (inactive).

For `Nc1nc(SCC(=O)O)nc(O)c1N`, in the assay with BT-549, the GI50 is > 100 µM (inactive).

Take `CC(=O)Nc1ccc2c3c(cc(O)c2c1)N(C(=O)CCCCCC(=O)N1CC(CCl)c2c1cc(O)c1cc(NC(C)=O)ccc21)CC3CCl` (stereo not drawn): in the assay with BT-549, the GI50 is 0.0134 µM (active).

Turning to `Fc1ccc(Nc2nc(Cl)c3nc[nH]c3n2)cc1Cl`, the GI50 in the assay with BT-549 is > 100 µM (inactive).

For `Cc1c(Cl)cccc1NC(=O)CC1C(=O)Nc2ccccc2S1(=O)=O` (stereo not drawn), the GI50 in the assay on DLD-1 is 15.1 µM (inactive); in the assay on DMS-114, 16.5 µM (inactive); in the assay on KM-20L2 it was 22.4 µM (inactive); with LXFL 529, 15.3 µM (inactive); with SNB-78, 20.2 µM (inactive); with XF498 it was 15.2 µM (inactive).

`Cc1ccc(/C=N/n2c(=O)[nH]c3ccccc3c2=O)cc1`: the GI50 in the assay with BT-549 is > 100 µM (inactive).

In the case of `COc1ccc(Nc2nc3ccc(C(F)(F)F)cc3nc2C(=O)O)cc1OC`, the GI50 in the assay on BT-549 is 22.5 µM (inactive).

Consider `Cc1ccc([N+](=O)[O-])cc1NC(=O)C(=O)Cc1cc(=O)oc2cc(O)ccc12`, for which the GI50 with DLD-1 was > 100 µM (inactive); with DMS-114, 18.5 µM (inactive); in the assay with HOP-18 it was > 100 µM (inactive); with KM-20L2, 63.7 µM (inactive); in the assay with LXFL 529 it was 56.5 µM (inactive); with SNB-78 it was > 100 µM (inactive). Also, the GI50 in the assay with XF498 was > 100 µM (inactive).

Regarding `CC1=C(CCC(C)CO)O[C@H]2C[C@H]3[C@@H]4CC[C@H]5C[C@@H](O)CC[C@]5(C)[C@H]4CC(=O)[C@]3(C)[C@@H]12` (stereo partly drawn), the GI50 in the assay with BT-549 is 16 µM (inactive).

Regarding `CCOC(=O)c1c(N2CCCC2)ncn(-c2ccccc2)c1=S`, the GI50 in the assay with BT-549 is > 100 µM (inactive).

With `CC(=O)N1C(CCc2ccccc2)CC(C)(C=O)C1Cc1ccc(O[Si](C(C)C)(C(C)C)C(C)C)cc1` (stereo not drawn), the GI50 in the assay with BT-549 is 15.6 µM (inactive).

`CCCC(=O)N1CCN(c2ccc3c(c2)OC(C)O3)CC1` (stereo not drawn): the GI50 in the assay on BT-549 is > 100 µM (inactive).

Take `Cc1ccc(SCN2CCCCC2)cc1.O=C(Cl)c1ccc([N+](=O)[O-])cc1`: the GI50 in the assay on BT-549 is 1.9 µM (inactive).

Consider `CCN(CCCOc1ccccc1)CCN(CC)CCCOc1ccccc1`, for which, in the assay on BT-549, the GI50 was 14.3 µM (inactive).

On to `NC12c3c4cccc3Oc3cccc(c31)Oc1cccc(c12)O4`, for which the GI50 with BT-549 was > 50 µM (inactive).

Take `O=C(O)c1cscc1Cc1cccs1`: in the assay with BT-549, the GI50 is > 100 µM (inactive).

Consider `Cc1ccc(N(C)S(=O)(=O)c2ccccc2)cc1`, for which, in the assay with BT-549, the GI50 was 61 µM (inactive).

Consider `Cc1cc2c(c(C(=O)NCCC(=O)O)c1)Oc1c(cc(C)cc1C(=O)NCCC(=O)O)S2`, for which, in the assay with BT-549, the GI50 was > 100 µM (inactive).

On to `COc1ccc(-c2nc(O)c3ccccc3n2)cc1`, for which the GI50 with BT-549 is 83.9 µM (inactive).

With `CCN1CCC(O)(/C=C/c2ccc(Cl)cc2)C(C(=O)/C=C/c2ccc(Cl)cc2)C1` (stereo not drawn), the GI50 with DLD-1 was 16.5 µM (inactive); in the assay with DMS-114, 26.6 µM (inactive); in the assay on KM-20L2 it was 32.1 µM (inactive); in the assay with LXFL 529, 14.7 µM (inactive); in the assay with SNB-78, 45.5 µM (inactive); in the assay with XF498, 81.1 µM (inactive).

The values above are taken from ChEMBL document CHEMBL1201862, “PubChem BioAssay data set” (2004).
